Results published in US20010042341A1, “Vase-added compositions for controlling plant and flower moisture transpiration rates” (priority 2000, published 2001).

System: microorganisms
Settings: display water (vase water) of cut flowers; prior art antimicrobial

Q: With `O=C(O)CC(O)(CC(=O)O)C(=O)O.Oc1cccc2cccnc12` [8-hydroxy quinoline citrate] as the molecule, how does the growth of microorganisms read?
A: enhance the growth of microorganisms after an initial diminution of their level
